# Active and inactive are the calls of the source. The calls are words filed in the database; no cut-off is given here.
# How the values were obtained:
# [1] = tested on: Trypanosoma cruzi; assay: Antitrypanosomal activity against Trypanosoma cruzi CA1/72 infected in immunocompetent C3HeB/FeJ mouse assessed as protection against lethal acute Chaga's disease at 50 mg/kg, ip twice daily for 27 days; format: functional; details: route intraperitoneal
# [2] = tested on: Trypanosoma cruzi; assay: Antitrypanosomal activity against Trypanosoma cruzi CA1/72 infected in recombinase Rag1 deficient mouse assessed as protection against liver infection at 50 mg/kg, ip twice daily for 27 days measured at 16 to 24 weeks postinfection by histopathology; format: functional, organism-based; parameters: dose 50 mg/kg
# [3] = tested on: Trypanosoma cruzi; assay: Antitrypanosomal activity against Trypanosoma cruzi CA1/72 infected in recombinase Rag1 deficient mouse assessed as Trypanosoma-specific kinetoplast DNA in blood at 50 mg/kg, ip twice daily for 27 days by PCR; format: functional, organism-based; parameters: dose 50 mg/kg
# [4] = tested on: Trypanosoma cruzi; assay: Antitrypanosomal activity against Trypanosoma cruzi CA1/72 infected in recombinase Rag1 deficient mouse assessed as protection against heart infection at 50 mg/kg, ip twice daily for 27 days measured at 16 to 24 weeks postinfection by histopathology; format: functional, organism-based; parameters: dose 50 mg/kg
# [5] = tested on: Trypanosoma cruzi; assay: Antitrypanosomal activity against Trypanosoma cruzi CA1/72 infected in recombinase Rag1 deficient mouse assessed as protection against spleen infection at 50 mg/kg, ip twice daily for 27 days measured at 16 to 24 weeks postinfection by histopathology; format: functional, organism-based; parameters: dose 50 mg/kg
# [6] = tested on: Trypanosoma cruzi; assay: Antitrypanosomal activity against Trypanosoma cruzi CA1/72 infected in recombinase Rag1 deficient mouse assessed as protection against lethal acute Chaga's disease at 50 mg/kg, ip twice daily for 27 days; format: functional; details: route intraperitoneal
# [7] = tested on: Trypanosoma cruzi; assay: Antitrypanosomal activity against Trypanosoma cruzi CA1/72 infected in recombinase Rag1 deficient mouse assessed as protection against colon infection at 50 mg/kg, ip twice daily for 27 days measured at 16 to 24 weeks postinfection by histopathology; format: functional, organism-based; parameters: dose 50 mg/kg
# [8] = tested on: Trypanosoma cruzi; assay: Antitrypanosomal activity against Trypanosoma cruzi CA1/72 infected in recombinase Rag1 deficient mouse blood assessed as Trypanosoma-specific kinetoplast DNA in blood at 50 mg/kg, ip twice daily for 27 days measured after 80 to 160 days post-infection by PCR; format: functional, organism-based; parameters: dose 50 mg/kg
# [9] = tested on: Trypanosoma cruzi; assay: Antitrypanosomal activity against Trypanosoma cruzi CA1/72 infected in recombinase Rag1 deficient mouse assessed as Trypanosoma-specific kinetoplast DNA in spleen at 50 mg/kg, ip twice daily for 27 days by PCR; format: functional, organism-based; parameters: dose 50 mg/kg
# [10] = tested on: Trypanosoma cruzi; assay: Antitrypanosomal activity against Trypanosoma cruzi CA1/72 infected in recombinase Rag1 deficient mouse assessed as protection against skeletal muscle infection at 50 mg/kg, ip twice daily for 27 days measured at 16 to 24 weeks postinfection by histopathology; format: functional, organism-based; parameters: dose 50 mg/kg; details: Muscle tissue
# [11] = tested on: Trypanosoma cruzi; assay: Antitrypanosomal activity against Trypanosoma cruzi CA1/72 infected in recombinase Rag1 deficient mouse assessed as Trypanosoma-specific kinetoplast DNA in liver at 50 mg/kg, ip twice daily for 27 days by PCR; format: functional, organism-based; parameters: dose 50 mg/kg
# [12] = tested on: Trypanosoma cruzi; assay: Antitrypanosomal activity against Trypanosoma cruzi CA1/72 infected in recombinase Rag1 deficient mouse assessed as survival from lethal infection at 50 mg/kg, ip twice daily for 27 days; format: functional; details: route intraperitoneal
# [13] = tested on: Trypanosoma cruzi; assay: Antitrypanosomal activity against Trypanosoma cruzi CA1/72 infected in recombinase Rag1 deficient mouse assessed as Trypanosoma-specific kinetoplast DNA in heart at 50 mg/kg, ip twice daily for 27 days by PCR; format: functional, organism-based; parameters: dose 50 mg/kg
smiles,measurement,setting,value
CN1CCN(C(=O)N[C@@H](Cc2ccccc2)C(=O)N[C@H](/C=C/S(=O)(=O)c2ccccc2)CCc2ccccc2)CC1 [K-777],Activity,[1],100%
same,Activity,[2],Active
same,Activity,[3],inactive
same,Activity,[4],Active
same,Activity,[5],Active
same,Activity,[6],60%
same,Activity,[7],Active
same,Activity,[8],Active
same,Activity,[9],Active
same,Activity,[10],Active
same,Activity,[11],Active
same,Survival,[12],150 days
same,Activity,[13],Active

# Source: ChEMBL document CHEMBL1137634, “A cysteine protease inhibitor cures Chagas' disease in an immunodeficient-mouse model of infection” (2007)
